Results published in patent US20090143419A1, “METHODS AND COMPOSITIONS FOR CONTROLLING ECTOPARASITES” (HATCHTECH PTY LTD, priority 2005, published 2009).
Structures can show the parent of a compound that is named as a salt. Peptide text beside a SMILES is read from it. * marks the point of attachment. Cbz = O=C(OCc1ccccc1)*; NHOH = ON*

Key:
[1] = system: lice eggs; assay: Time-course in vitro lice egg hatching assay; type: in vivo, clothing lice (Pediculus humanus humanus); conditions: for effect on egg hatching: results not shown
[2] = system: Plutella xylostella eggs (Waite strain); assay: Egg hatching of Plutella xylostella; conditions: Table 16; 10 mM; relative to control (100% ETOH)
Protocol: The egg masses were then placed in a humid box at 25 degrees until egg hatch. Control eggs were exposed to absolute methanol as described above. At day 6 post laying the eggs were assessed from the different treatments and the percentage of egg hatch determined relative to the control as shown in Table 9.
Batches of Plutella eggs that were laid on either fine cloth or parafilm were dipped in a specific inhibitor solution for between 2-10 seconds, the excess solution was drained by blotting with dry tissue paper. The egg masses were then placed in a humid box at 25 degrees until egg hatch. Control eggs were exposed to absolute methanol as described above or not treated. At day 6 post laying the eggs were assessed from the different treatments and the percentage of egg hatch determined relative to the controls as shown in Tables 10 and 11.
Batches of Plutella eggs that were laid on fine cloth were dipped in a specific inhibitor solution for approximately 2 seconds, the excess solution was drained by blotting with dry tissue paper. The egg masses were then placed in a humid box at 25 degrees until egg hatch. Control eggs were exposed to absolute methanol as described above or not treated. At day 6 post laying the eggs were assessed from the different treatments and the percentage of egg hatch determined relative to the control as shown in Table 12.
The egg masses were then placed in a humid box at 25 degrees until egg hatch. Control eggs were exposed to absolute ethanol as described above. On day 6 post laying the eggs were assessed from the different treatments and the percentage of egg hatch determined relative to the control.

[3] = Pediculus humanus, 5 mM, read-out: % Inhibition of lice egg hatching (maximum over the time-course)
[4] = Pediculus humanus, 5 mg/ml, read-out: % Inhibition of lice egg hatching (maximum over the time-course)

## c1ccc(-c2ccccn2)nc1 [2,2′-dipyridyl]
[1]; 10 mM
  % Inhibition of lice egg hatching (maximum over the time-course): 100%
[1]; Table 5, […], per replicate
  Ph (number of eggs partly hatched): 0
[1]; in vivo
  lice egg hatching: completely inhibited

## c1ccc(-c2ccc3ccccc3n2)nc1 [2-(2-pyridinyl)quinoline]
[2]
  % Inhibition: able to inhibit egg hatching

## O=C(O)CNC(=O)C(CS)Cc1ccccc1 [D-L thiorophan, reference compound]
[1]; 1 mg/ml
  % Inhibition of lice egg hatching (maximum over the time-course): 20%

## O=C(O)CN(CCN(CC(=O)O)CC(=O)O)CC(=O)O [EDTA, reference compound]
[1]; 100 mM
  effect on egg hatching: did not appear to have an effect

## O=C(O)CN(CCOCCOCCN(CC(=O)O)CC(=O)O)CC(=O)O [EGTA, reference compound]
[1]; 10 mM
  effect on egg hatching: did not appear to have an effect

## CNC(=O)[C@H](Cc1c[nH]c2ccccc12)NC(=O)[C@@H](CC(=O)NO)CC(C)C [GM 6001, reference compound]
[1]; concentration not given
  % Inhibition of lice egg hatching (maximum over the time-course): 0%

## CC(C)C[C@H](N)CS [L-leucinthiol, reference compound]
[1]; [3]
  inhibition at 5000 µM: 0%

## CC(C)C[C@H](NC(=O)[C@@H]1CCCN1C(=O)OCc1ccccc1)C(=O)NCC(=O)NO [N-CBZ-PRO-LEU-GLY hydroximate, reference compound] (Cbz-Pro-Leu-Gly-{NHOH})
[1]; 10 mM
  % Inhibition of lice egg hatching (maximum over the time-course): 0%

## CCCCC[C@H](CC(=O)NO)C(=O)N[C@H](C(=O)N1CCC[C@H]1CO)C(C)C [actinonin, reference compound]
[1]; [3]
  inhibition at 5000 µM: 0%

## CC(C)C[C@@H](N)[C@H](O)C(=O)N[C@H](C(=O)N[C@H](C(=O)N[C@@H](CC(=O)O)C(=O)O)C(C)C)C(C)C [amastatin, reference compound]
[1]; [3]
  inhibition at 5000 µM: 26%

## C[C@H](CS)C(=O)N1CCC[C@H]1C(=O)O [captopril, 1-[(2S)-3-mercapto-2-methyl-1-oxopropyl]-L-proline, reference compound]
[1]; Pediculus humanus, 23 mM, read-out: % Inhibition of lice egg hatching (maximum over the time-course)
  inhibition at 23000 µM: 27%

## [H]/N=C(\N/C(=N/[H])NCCCCCCNC(=N)NC(=N)Nc1ccc(Cl)cc1)Nc1ccc(Cl)cc1 [chlorhexidine dihydrochloride, reference compound]
[1]; concentration not given
  % Inhibition of lice egg hatching (maximum over the time-course): 0%

## C[C@H]1c2cccc(O)c2C(=O)C2=C(O)[C@]3(O)C(=O)C(C(N)=O)=C(O)[C@@H](N(C)C)[C@@H]3[C@@H](O)[C@@H]21 [doxycycline, reference compound]
[1]; 5 mg/ml
  % Inhibition of lice egg hatching (maximum over the time-course): 69%
[1]; [4]
  inhibition at 5000 µg/mL: 65%

## CO[C@@H]1[C@H](OC(=O)/C=C/C=C/C=C/C=C/C(=O)O)CC[C@]2(CO2)[C@H]1[C@@]1(C)O[C@@H]1CC=C(C)C [fumagillin, reference compound]
[1]; [3]
  inhibition at 5000 µM: 0%

## CC(C)C[C@H](N)[C@](O)(Cc1cnc[nH]1)C(=O)O [leuhistin, reference compound]
[1]; 5 mM
  % Inhibition of lice egg hatching (maximum over the time-course): 0%

## CN(C)c1ccc(O)c2c1C[C@H]1C[C@H]3[C@H](N(C)C)C(O)=C(C(N)=O)C(=O)[C@@]3(O)C(O)=C1C2=O [minocycline, reference compound]
[1]; [4]
  inhibition at 5000 µg/mL: 55%

## CC(C)C[C@H](NC(=O)[C@@H](O)[C@H](N)Cc1ccc([N+](=O)[O-])cc1)C(=O)O [nitrobestatin, reference compound]
[1]; 1 mg/ml
  % Inhibition of lice egg hatching (maximum over the time-course): 0%

## CC(C)C[C@H](NP(=O)(O)O[C@@H]1O[C@@H](C)[C@H](O)[C@@H](O)[C@H]1O)C(=O)N[C@@H](Cc1c[nH]c2ccccc12)C(=O)O [phosphoramidon, N-(alpha-rhamnopyranosyloxy-hydroxyphosphinyl)-L-leucyl-L-tryptophan, reference compound]
[1]; [3]
  inhibition at 5000 µM: 41%

## CN(C)[C@@H]1C(O)=C(C(N)=O)C(=O)[C@@]2(O)C(O)=C3C(=O)c4c(O)cccc4[C@@](C)(O)[C@H]3C[C@@H]12 [tetracycline, reference compound]
[1]; [4]
  inhibition at 5000 µg/mL: 89%
